These results are taken from ChEMBL document CHEMBL1157603, “Structural insights into the design of small molecule inhibitors that selectively antagonize Mcl-1” (J Med Chem, 2010).

SMILES strings stand for the structures. A value given as a limit tells only on which side of the number the result lay.

Assay [1] concerns the target T1, Bcl-2-like protein 1 (Homo sapiens, UniProt Q07817). Kind of assay: Binding affinity to human Bcl-XL by isothermal titration calorimetry. (Isothermal titration calorimetry measures the heat released or taken up as one component is titrated into another.)
For assay [2], the target named is T2, Induced myeloid leukemia cell differentiation protein Mcl-1 (Homo sapiens, UniProt Q07820). As to the kind of experiment: Displacement of fluorescein-labeled Bak-BH3 peptide from human Mcl1 by fluorescence polarization assay. Background: Polarisation of emitted light reports the rotation of a fluorescent probe.
T2 sequence (Q07820 whole entry): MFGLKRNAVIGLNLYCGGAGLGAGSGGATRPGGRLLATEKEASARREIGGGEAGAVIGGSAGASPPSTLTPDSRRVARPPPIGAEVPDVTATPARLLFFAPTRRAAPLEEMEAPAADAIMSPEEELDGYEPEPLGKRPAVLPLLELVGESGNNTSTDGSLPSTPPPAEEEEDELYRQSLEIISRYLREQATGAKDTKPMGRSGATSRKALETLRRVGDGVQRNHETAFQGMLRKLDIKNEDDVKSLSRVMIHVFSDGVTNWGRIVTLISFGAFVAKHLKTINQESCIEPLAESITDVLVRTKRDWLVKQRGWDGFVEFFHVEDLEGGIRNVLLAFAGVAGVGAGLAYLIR
For assay [3], the target named is T2, Induced myeloid leukemia cell differentiation protein Mcl-1. As to the kind of experiment: Binding affinity to human Mcl1 by isothermal titration calorimetry.
The target in assay [4] is T1, Bcl-2-like protein 1. As to the kind of experiment: Displacement of fluorescein-labeled Bak-BH3 peptide from human Bcl-XL by fluorescence polarization assay.

T1 sequence (Q07817 whole entry): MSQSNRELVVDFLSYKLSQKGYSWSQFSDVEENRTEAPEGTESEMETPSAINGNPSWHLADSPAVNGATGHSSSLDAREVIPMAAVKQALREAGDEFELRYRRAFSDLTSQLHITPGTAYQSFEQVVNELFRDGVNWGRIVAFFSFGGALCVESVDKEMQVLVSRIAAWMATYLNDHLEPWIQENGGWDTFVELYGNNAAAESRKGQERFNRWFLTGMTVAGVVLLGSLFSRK

In general, Kd refers to the constant that tells how readily two partners part at equilibrium. Broadly, the Ki is a dissociation constant, usually derived from enzyme kinetics or from competition with a known ligand. Low values mean tighter binding, high ones weaker binding. Turning to `COc1ccc(-c2ccc(/C=C3\SC(=S)N([C@@H](Cc4ccccc4)C(=O)O)C3=O)cn2)cc1OC`, the dissociation constant (Kd) was above 750 µM at Bcl-2-like protein 1 [1] and 10 µM in assay [3]. Moreover, the Ki was 8 µM in assay [2] and above 100 µM at Bcl-2-like protein 1 [4].

Regarding `CC(C)C(C(=O)O)N1C(=O)/C(=C/c2ccc(Br)cc2)SC1=S` (configuration not stated), the results for the Kd (at Bcl-2-like protein 1 [1]; in assay [3]) were 8.7 µM and 84 µM, respectively. The Ki in assay [2] amounted to 44 µM; on Bcl-2-like protein 1 [4], 10 µM.

Take `COc1cccc(-c2ccc(/C=C3\SC(=S)N([C@@H](Cc4ccccc4)C(=O)O)C3=O)cn2)c1OC`: the Kd amounted to 3.4 µM at Bcl-2-like protein 1 [1] and 0.25 µM in assay [3]. In addition, the Ki in assay [2] was 6.9 µM; at Bcl-2-like protein 1 [4], 3.7 µM.
